Experiment in all cases: growth of human tumour cells (NCI), 48 h
In test [1] the test system is RXF 631.
The test system of test [2] is XF498.
For test [3], the system named is LXFL 529.
In test [4] the test system is SNB-78.
The subject of test [5] is BT-549.
The test system of test [6] is DU-145.
Test [7] concerns HOP-18.
For test [8], the system named is DMS-273.
In test [9] the test system is KM-20L2.

The structures appear in SMILES notation.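 48-hour exposure; five concentrations; linearly interpolated endpoints. Abbreviation: GI50, concentration required for 50% inhibition of growth.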 Activity calls are given as the source filed them. No stated cut-off is given here; in the data, active = GI50 up to about 1.1 µM and inactive = higher. Some results are limits rather than exact numbers.

Regarding `Cc1cccc(NC(N)=S)c1`, the GI50 in test [1], in test [2], in test [3] and in [4] was > 100 µM (inactive) in each case.

On to `COc1ccc(C(=C2C=CC=C2)c2ccc(OC)cc2)cc1`, for which the GI50 in test [5] is > 100 µM (inactive); in test [6], 40.7 µM (inactive).

On to `C#CCNC(=O)CCC(N)C(=O)O` (stereo not given), for which the GI50 in test [2], in test [7], in test [8], in test [9] and in test [4] was > 100 µM (inactive) in each case.

For `COc1c2c(c3ccccc3c1O)C1C=CC2C1` (stereo not given), the GI50 was 14.7 µM (inactive) in [2]; 15.1 µM (inactive) in test [7]; 15.7 µM (inactive) in test [8]; 22.3 µM (inactive) in [9]; 3.82 µM (inactive) in [3].

As to `COC(=O)C1=C(C)N2CCSC2(C)C(C(=O)OC)C1c1cccc(Cl)c1` (stereo not given), the GI50 was 17.5 µM (inactive) in test [9] and 20 µM (inactive) in test [3].

For the compound `COc1ccc(-c2c3c(nc4[nH]c(=S)[nH]c(=S)c24)CCCC3)cc1OC`, the GI50 in test [5] is 48.9 µM (inactive); in test [6] it was 35.8 µM (inactive).

Turning to `O=C(O)C(Br)Cc1ccc2c(c1)OCO2` (stereo not given), the GI50 in test [2] was 24 µM (inactive); in [9] it was > 100 µM (inactive); in test [3], > 100 µM (inactive); in test [4], > 100 µM (inactive).

On to `CCOC(=O)C1(C(C)=O)OC(=O)c2cnccc21` (stereo not given), for which the GI50 in test [5] and in [6] was > 100 µM (inactive) each time.

For `CN(C)/N=C(/CC(O)(C(F)(F)F)C(F)(F)F)c1ccc([N+](=O)[O-])cc1`, the GI50 in test [6] is > 100 µM (inactive).

As for `COP(=O)(OC)C(Cc1c[nH]c2ccccc12)NC(=O)OCc1ccccc1` (stereo not given), in [6], the GI50 was > 100 µM (inactive).

Regarding `CC(=O)Nc1ccc(C(=O)N2N=C(C)/C(=C/c3ccc(O)cc3)C2=O)cc1`, the GI50 in test [2], in [8] and in test [4] was > 100 µM (inactive) each time.

On to `BrC(/C=N/Nc1nnc(-c2ccccc2)c(-c2ccccc2)n1)C(Br)c1ccccc1` (stereo not given), for which the GI50 in test [1] was 51.4 µM (inactive); in test [2], 25.3 µM (inactive); in [8] it was 30.5 µM (inactive); in test [9] it was 39.8 µM (inactive); in [4] it was 17.7 µM (inactive).

As for `C[C@H](N)C(=O)N[C@@H]1[C@H]2C(=C(O)C[C@@H](O)[C@@H]2O)C(=O)O[C@@H]1C`, the GI50 in [2] was > 82 µM (inactive); in test [7], 76.9 µM (inactive); in test [8] it was > 100 µM (inactive); in test [9], > 100 µM (inactive).

`Cc1cc(O)nc(NN2C(Cl)C(=O)C2c2ccco2)n1` (stereo not given): the GI50 in test [7] was 21.1 µM (inactive); in test [8], 33.7 µM (inactive); in [9] it was 39.4 µM (inactive); in test [3], 29.3 µM (inactive); in [4], 25.7 µM (inactive).

With `O=C(O)c1c[nH]c2c(=O)[nH]cnc12`, the GI50 in test [1], in [7], in test [3] and in test [4] was > 100 µM (inactive) throughout.

Regarding `CCOC(=O)C1=C(C)N(c2ccc(Cl)cc2)C2(O)C=CC(Nc3ccc(Cl)cc3)=C3C(=O)N(c4ccccc4)C(=O)C312` (stereo not given), the GI50 is 1.54 µM (inactive) in [5] and 4.27 µM (inactive) in [6].

Regarding `CC1=Nc2nc(Cl)cn2C(=O)C1(Cl)Cl`, in [6], the GI50 was > 10 µM (inactive).

With `CCOC(=O)CN(Cn1cncn1)Cn1cncn1`, the GI50 in test [2] was 20.4 µM (inactive); in test [7] it was 32.8 µM (inactive); in [8] it was 20.5 µM (inactive); in test [9], 22.5 µM (inactive); in test [3] it was 40.2 µM (inactive); in [4], 91 µM (inactive).

As for `C/C(N)=N/OCc1nc(C)no1`, the GI50 in test [5] and in [6] was > 100 µM (inactive) in each case.

On to `CC1CC2C3CCC4=CC(=O)C=CC4(C)C3(F)C(O)CC2(C)C1(O)C(=O)COP(=O)(O)O` (stereo not given), for which the GI50 in test [2], in test [7], in test [8], in [9], in test [5] and in test [6] was > 100 µM (inactive) in each case. Besides, the GI50 in test [3] and in test [4] was > 100 µM (inactive) in each case.

Turning to `CC1[C@@]2(O[C@@H]3C=C4C5CCC6Cc7nc8c(nc7C[C@@]6(C)C5C[C@H](O)[C@@]4(C)[C@]13O)CC1CCc3c(cc4c5c3C(O)C[C@H]5[C@@H](C)C3(O4)OC(C)(C)CC3O)[C@]1(C)C8)O[C@@](C)(CO)C[C@@H]2O` (stereo not given in full), the GI50 is 0.0162 µM (active) in [2]; 1.92 µM (inactive) in [7]; 0.0504 µM (active) in test [8]; 0.37 µM (active) in test [9]; 0.183 µM (active) in test [4].

Turning to `Oc1[nH]c(Nc2cccc(Br)c2)nc2ncnc1-2`, the GI50 is 82.8 µM (inactive) in [5] and 73.3 µM (inactive) in test [6].

`Nc1ccn(C2OC(CO)C(O)C2O)c(=O)c1` (stereo not given): the GI50 in test [2] is < 0.0625 µM (active); in [7], 295 µM (inactive); in [8], 165 µM (inactive); in [9], 566 µM (inactive); in test [4], > 625 µM (inactive).

Source of the values: ChEMBL document CHEMBL1201862, “PubChem BioAssay data set” (2004).
